Measured values taken from patent publication US20200062719A1, “Application of Imidazopyridine Derivatives in Regenerative Medicine” (University of Heidelberg, priority 2018, published 2020).

Legend:
human fibroblasts = assay: Episome-based reprogramming of human fibroblasts, AP+ / iPSC-like colonies; format: cell-based
Procedure: O4I3 was applied in commercially available episome-based reprogramming cocktail containing episomal vectors for overexpression of Oct4, Sox2, Klf4, Lin28 and L-Myc, as well as suppression of p53. In comparison to non-treated fibroblast cultures, 20 times more alkaline phosphatase (AP) positive colonies were detected in the presence of O4I3 at a concentration of 50 nM in two tested human primary fibroblasts (HF1 and HF2) (FIG. 13).
It is known in the art that senescence or other unknown factors can confer donor fibroblasts resistance to reprogramming. Therefore, O4I3 was tested for its ability to enable reprogramming of refractory fibroblasts. Two human fibroblasts were selected. HFF-LTR7-EGFP at passage >40 carrying EGFP driven by a LTR7 promoter, which was activated during reprogramming, and HF5, isolated from a patient sample, both of which were resistant to an episome-based reprogramming approach (FIG. 13).
Epi5® Episomal iPSC Reprogramming Kit (Life technologies) was used to reprogram human fibroblasts according to the manufacturer's protocol. Briefly, 5,000-50,000 cells were seeded in a 24-well plate for 24 h and then transfected with episomal vectors in N2 B27 medium. After 14 days, cells were re-suspended with 0.5 mM EDTA and re-plated in a 6-well plate in Essential®8 medium. Colonies were isolated after 3-4 weeks with the help of alkaline phosphatase (AP) live stain (Life technologies). Medium was refreshed daily.

KDM5C = molecular target: T1, KDM5C (Homo sapiens, UniProt P41229); assay: KDM5C inhibition, enzyme immunoprecipitated from cells; format: biochemical
T1 construct: magnetic beads were used to immunoprecipitate the respective enzymes from 10^8 cells; endogenous in cells
T1 sequence (P41229 whole entry): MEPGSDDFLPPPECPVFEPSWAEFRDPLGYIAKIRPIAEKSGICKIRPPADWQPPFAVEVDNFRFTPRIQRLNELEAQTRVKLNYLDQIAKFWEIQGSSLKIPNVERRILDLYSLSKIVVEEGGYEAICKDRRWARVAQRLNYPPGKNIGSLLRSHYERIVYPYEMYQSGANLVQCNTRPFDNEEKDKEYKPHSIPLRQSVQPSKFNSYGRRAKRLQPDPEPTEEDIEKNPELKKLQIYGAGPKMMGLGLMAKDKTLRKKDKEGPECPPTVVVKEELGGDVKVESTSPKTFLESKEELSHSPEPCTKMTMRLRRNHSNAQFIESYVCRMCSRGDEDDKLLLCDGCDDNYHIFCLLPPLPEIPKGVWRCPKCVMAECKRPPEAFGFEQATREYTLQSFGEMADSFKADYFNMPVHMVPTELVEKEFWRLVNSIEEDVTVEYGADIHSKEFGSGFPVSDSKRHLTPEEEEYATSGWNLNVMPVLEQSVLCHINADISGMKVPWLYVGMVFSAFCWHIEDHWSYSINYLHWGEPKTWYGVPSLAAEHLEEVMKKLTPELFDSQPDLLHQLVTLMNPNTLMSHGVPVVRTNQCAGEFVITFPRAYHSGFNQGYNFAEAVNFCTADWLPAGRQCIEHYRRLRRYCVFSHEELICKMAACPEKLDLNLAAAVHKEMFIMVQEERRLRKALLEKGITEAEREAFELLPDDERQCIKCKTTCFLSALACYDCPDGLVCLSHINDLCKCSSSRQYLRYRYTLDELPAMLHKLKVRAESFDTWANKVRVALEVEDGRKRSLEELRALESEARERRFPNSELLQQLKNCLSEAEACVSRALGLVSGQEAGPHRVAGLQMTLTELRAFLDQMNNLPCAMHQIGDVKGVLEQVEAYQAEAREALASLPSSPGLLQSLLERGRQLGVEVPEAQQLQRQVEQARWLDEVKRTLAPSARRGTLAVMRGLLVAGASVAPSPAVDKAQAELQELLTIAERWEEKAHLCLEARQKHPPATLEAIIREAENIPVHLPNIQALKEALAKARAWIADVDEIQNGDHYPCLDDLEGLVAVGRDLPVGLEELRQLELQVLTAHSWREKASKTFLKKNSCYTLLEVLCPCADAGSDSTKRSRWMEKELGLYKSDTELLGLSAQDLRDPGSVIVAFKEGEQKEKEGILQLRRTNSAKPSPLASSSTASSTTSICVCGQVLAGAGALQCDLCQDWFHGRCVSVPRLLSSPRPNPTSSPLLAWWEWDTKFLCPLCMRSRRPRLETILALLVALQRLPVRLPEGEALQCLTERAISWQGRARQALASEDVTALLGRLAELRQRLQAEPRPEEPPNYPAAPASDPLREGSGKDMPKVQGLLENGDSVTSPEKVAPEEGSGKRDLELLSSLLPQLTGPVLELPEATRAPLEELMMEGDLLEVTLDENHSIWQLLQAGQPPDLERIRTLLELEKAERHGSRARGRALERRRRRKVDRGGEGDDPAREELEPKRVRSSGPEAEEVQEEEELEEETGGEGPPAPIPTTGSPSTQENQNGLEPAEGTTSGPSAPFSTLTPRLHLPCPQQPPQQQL
Text: (§1) In mammalian cells, the KDM5 family consists of four members, namely, KDM5A (known as JARID1A), KDM5B (known as JARID1B or PLU1), KDM5C (JARID1C), and KDM5D (JARID1D or SMCY). […] Next, the inventors tested four KDM chemical inhibitors. […] The inventors detected the induction of OCT4, SOX2, and E-Cadherin expression in JIB-04-treated HFs (FIG. 18D).
(§2) Epiquik histone demethylase (H3K4 specific) activity/inhibition assay kit (Epigentek, Biocat, Germany) was used to measure the protective effect of O4I3 and zolpidem on the methylation of H3K4. Their inhibitory effects on LSD1, KDM5s, and KDM4 were determined using Epigenase jarid demethylase activity/inhibition assay kit, Epigenase JMJD2 demethylase activity/inhibition assay kit and EpiQuik histone demethylase LSD1 activity/inhibition assay kit (Epigentek, Biocat, Germany). The total nuclear extraction was used according to manufacturer's instructions. For measuring KDM5A, KDM5B, KDM5C, and KDM5D activity, magnetic beads were used to immunoprecipitate the respective enzymes from 10^8 cells according to the manufacturer's instructions (Cell Signaling Technologies).

iPSCs = assay: qRT-PCR gene expression in iPSCs; format: cell-based, human; conditions: 50 nM, 24 h
Procedure: A) O4I3 promoted the viability of hiPSCs in single cell expansion. B) Homogeneous expression of […] and Oct4 up to passage (p) 30 in hiPSCs treated with 50 nM O4I3 analyzed by FACS C) Relative fold changes to non-treatment in hiPSCs treated with O4I3 (50 nM) for 24 h analyzed by qRT-PCR. D) Gene expression profiling analysis of functional annotation enrichment for categories related to pluripotency, development and homeostasis in O4I3-treated iPSCs for 24 h. Data are represented as mean±SD from at least 3 independent experiments ***: p<0.001; **: p<0.01; *: p<0.05.
Quantitative reverse-transcription real-time-PCR was performed using a Light Cycler 96 (Roche, Germany) following the manufacturer's protocol. Briefly, total RNA was isolated from cells using TRIzol (Qiagen, Germany) or NucleoSpin®RNA Plus (Macherey-Nagel, Germany). The same amount of RNA was used to reverse-transcriptional synthesize cDNA by using random primers ProtoScript® First Strand cDNA Synthesis Kit (NEB, Germany). qPCR was performed using the SYBR Green PCR master mix (qPCRBIO SyGreen Mix Lo-Rox, Nippon Genetics, Germany) and the primer pairs indicated below (MWG, Eurofins, Germany). Actin was used as an endogenous control. Data were normalized to the value of untreated cells showing the mean±SD of quadruplicates and are representative of at least three independent experiments.

KDM5A = molecular target: T2, KDM5A (Homo sapiens, UniProt P29375); assay: KDM5A inhibition, enzyme immunoprecipitated from cells; format: biochemical
T2 construct: magnetic beads were used to immunoprecipitate the respective enzymes from 10^8 cells; endogenous in cells
T2 sequence (P29375 whole entry): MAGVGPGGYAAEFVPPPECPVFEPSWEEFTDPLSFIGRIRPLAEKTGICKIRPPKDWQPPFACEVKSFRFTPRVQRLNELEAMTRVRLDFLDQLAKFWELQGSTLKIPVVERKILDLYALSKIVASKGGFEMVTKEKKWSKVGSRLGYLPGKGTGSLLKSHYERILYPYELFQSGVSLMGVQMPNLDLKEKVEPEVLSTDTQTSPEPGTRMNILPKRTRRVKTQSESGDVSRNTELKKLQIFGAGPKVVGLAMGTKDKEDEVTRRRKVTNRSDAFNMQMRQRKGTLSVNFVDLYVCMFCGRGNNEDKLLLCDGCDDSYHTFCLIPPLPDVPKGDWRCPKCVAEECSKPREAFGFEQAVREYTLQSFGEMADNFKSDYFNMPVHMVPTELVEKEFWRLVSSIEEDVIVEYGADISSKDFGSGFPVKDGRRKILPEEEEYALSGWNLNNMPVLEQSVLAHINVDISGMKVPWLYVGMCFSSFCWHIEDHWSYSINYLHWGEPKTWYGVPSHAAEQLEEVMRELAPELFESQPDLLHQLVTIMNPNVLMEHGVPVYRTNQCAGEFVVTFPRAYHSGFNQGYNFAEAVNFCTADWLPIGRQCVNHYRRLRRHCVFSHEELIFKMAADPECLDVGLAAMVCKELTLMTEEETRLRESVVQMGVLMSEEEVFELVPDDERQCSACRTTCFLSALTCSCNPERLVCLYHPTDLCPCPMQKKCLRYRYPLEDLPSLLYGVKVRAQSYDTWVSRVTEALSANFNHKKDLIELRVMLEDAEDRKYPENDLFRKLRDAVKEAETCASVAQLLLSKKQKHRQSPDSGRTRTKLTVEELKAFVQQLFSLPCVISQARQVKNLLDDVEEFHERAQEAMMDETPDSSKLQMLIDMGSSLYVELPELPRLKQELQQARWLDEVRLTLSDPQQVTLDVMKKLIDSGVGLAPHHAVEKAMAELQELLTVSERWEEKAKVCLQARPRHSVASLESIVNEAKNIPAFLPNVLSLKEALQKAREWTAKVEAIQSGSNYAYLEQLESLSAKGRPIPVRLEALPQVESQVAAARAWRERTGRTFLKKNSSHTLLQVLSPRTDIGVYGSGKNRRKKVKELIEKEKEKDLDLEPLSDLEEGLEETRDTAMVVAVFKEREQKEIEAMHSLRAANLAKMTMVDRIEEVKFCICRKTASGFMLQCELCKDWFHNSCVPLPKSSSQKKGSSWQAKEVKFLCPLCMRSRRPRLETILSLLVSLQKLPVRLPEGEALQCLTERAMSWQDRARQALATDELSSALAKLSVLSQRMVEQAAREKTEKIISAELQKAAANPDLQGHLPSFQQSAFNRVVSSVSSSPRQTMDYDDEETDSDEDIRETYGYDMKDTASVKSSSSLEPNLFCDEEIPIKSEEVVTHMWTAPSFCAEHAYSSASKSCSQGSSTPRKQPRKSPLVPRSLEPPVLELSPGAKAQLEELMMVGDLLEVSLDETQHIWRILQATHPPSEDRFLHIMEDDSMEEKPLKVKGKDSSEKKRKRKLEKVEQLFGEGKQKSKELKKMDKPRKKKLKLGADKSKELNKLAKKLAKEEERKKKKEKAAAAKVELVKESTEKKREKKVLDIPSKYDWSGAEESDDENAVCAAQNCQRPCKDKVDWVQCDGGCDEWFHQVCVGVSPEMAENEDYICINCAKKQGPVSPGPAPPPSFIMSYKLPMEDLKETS
Text: as §1, §2

Compound: Cc1ccc(-c2cn3cc(C)ccc3n2)cc1 [O4I3, 6-methyl-2-(p-tolyl)imidazo[1,2-a]pyridine]
- alkaline phosphatase (AP) positive colonies in comparison to non-treated fibroblast cultures (human fibroblasts; 50 nM, HF1 and HF2): 20 times
- reprogramming of resistant fibroblasts (human fibroblasts; 500 Nm, HFF-LTR7-EGFP and HF5): appearance of iPSC-like colonies
- IC50 less potent than for KDM5A, KDM5C (KDM5C): 40 fold
- expression of pluripotency-associated genes (iPSCs): stabilized or slightly increased
- IC50 (KDM5A): 0.19 nM
